According to ChEMBL document CHEMBL1150894, “Three new manzamine congeners from amphimedon sponge” (J Nat Prod, 1998):
Converted amounts (≈) assume the structure as drawn.

Columns and labels:
Corynebacterium xerosis = assay: Antibacterial activity against Corynebacterium xerosis; format: functional
Micrococcus luteus = assay: Antibacterial activity against Sarcina lutea; format: functional
L1210 = assay: Cytotoxicity against mouse L1210 cells; format: functional, cell-based

SMILES	MIC (Corynebacterium xerosis) [µg/mL]	MIC (Micrococcus luteus) [µg/mL]	IC50 (L1210) [µg/mL]
O[C@]12C=C(C3=NCCc4c3[nH]c3ccccc43)[C@@H]3CCN(CC/C=C\CCCC1)C[C@@]31CC/C=C\CCCCN[C@H]12	12.5 (≈ 22.6 µM)	12.5 (≈ 22.6 µM)	0.5 (≈ 0.904 µM)
O[C@]12C=C(c3nccc4c3[nH]c3ccccc34)[C@@H]3CCN(CCCC/C=C\CC1)C[C@@]31C[C@@H]3/C=C\CCCCN3[C@H]12 [MANZAMINE A]	5.7 (≈ 10.4 µM)	2.3 (≈ 4.19 µM)	1.4 (≈ 2.55 µM)
